The text below walks through data of US20050222036A1, “Peptide compositions with effects on blood glucose” (priority 2000, published 2005).

Holding throughout (assay type): in vivo, rat
Data set [1] is described as follows: Blood glucose in fasting rats. To be noted: 24 hour fasting rats, 100 ug intraperitoneal; for Blood glucose mean ± s.e.m.: 20 minutes after administration. The method, then:
Gilatide administered intraperitoneally (IP), but not intranasally (IN), lowers blood glucose levels in rats fasted for 24 hours. […] Gilatide's effect on blood glucose in fasting rats was measured. Groups of 24 hour fasting rats (n=5 or 6) were delivered either vehicle, insulin, Gilatide, GLP-1, exendin-4, Insulin A-chain, Insulin B-chain or C-peptide. Glucose levels were measured 20 minutes following intraperitoneal administration. All peptides were given at a dose of 100 ug (Table 2). In this experiment, insulin, the positive control, led to a 44% drop in blood glucose. Gilatide led to a significant drop in glucose level by 14%.

Data set [2] concerns rats. Briefly: Elevated plus maze test (anxiogenic effects). Also noted: TIME Open Arm / TIME Closed Arm: unit not given here. On the procedure: (§1) The elevated plus maze consists of two open and two closed arms; time spent and the number of entries into open arms are indicators of neophobic anxiety in rats. The number of entries and total time spent in the open arms were tabulated over 5 min by an observer blind to the experimental condition. Animals falling off the apparatus were eliminated from the study. For the intracerebroventricular (i.c.v.) studies, rats were implanted with a cannula (22 gauge, Plastics One, Roanoke, Va.) into the left ventricle (AP 0.8 mm, ML 1.6 mm, DV 3.5 mm from dura) then allowed at least 3-4 days to recover. The peptides were infused in a total volume of 2 μl (1 μl min −1) 25 min before training with two trials per day for 5 days. The visual platform test was conducted after the last training trial on day 5 in a different location of the pool.

In data set [3] the test system is rats. Briefly: Morris Water Maze (MWM), spatial learning in rats. To be noted: modified MWM. On the procedure:
Spatial learning was assessed using the Morris Water Maze (Morris et al. Nature, 1982, 297: 681). Information was relayed via a tracker (HSV Image, Hampton, UK) to a personal computer, which was quantified by a specialized computer program (Water 2020, Hampton, UK). The acquisition study was performed as described previously. Animals were anaesthetized with isofluorane then administered peptide intra-nasally 20 min before testing. Rats were given four training trials. 48 h after training, a retention test was performed: rats were allowed to find the hidden platform for one trial. Mice initially had six trials without treatment to habituate them to the procedure. The following day, they were administered vehicle or [Ser(2)]exendin(1-9) (SEQ ID NO:1) and trained for an additional four trials with the platform in a new location. For a retention test, mice were given one trial to locate the platform the next day. Latency to find the platform was considered a measure of retention of spatial learning.
as §1
In another series of experiments, rats (N=15-16) were pretreated with either Gilatide (10 μg/kg, 30 μg/kg, or 60 μg/kg) or vehicle and then trained for four trials in a Morris Water Maze. Two days following training, the rats were retested. Latency to find a submerged platform in the Morris Water Maze paradigm was measured.
Clinically approved treatments for cognitive impairment act primarily on the cholinergic system. The effects of intranasal GLP-1 and [Ser(2)]exendin(1-9) were compared with that of the cholinergic agonist arecoline on spatial learning in a modified version of the MWM (Setlow, B. et al. Learn. Mem, 2000. 7: 187). Rats were first administered vehicle, [Ser(2)]exendin(1-9), GLP-1 or arecoline, and trained for four trials to locate a submerged platform. They were then tested in a single retention trial 48 hours after initial training. There were no differences between treatments in acquisition (FIG. 10A).

Data set [4] has as its system rats. Briefly: Contextual fear conditioning in rats. To be noted: vs naïve and EGFP controls. On the procedure:
Fear conditioning was performed in a modified apparatus (MED Associates Inc., St. Albans, Vt.) housed in a sound attenuated cubicle. […] The animal was placed in the chamber and the occurrence of freezing behavior measured every 10 sec for 2 min before a shock was administered (rats, […], 2 sec; mice, 0.5 mA, 5 sec). Freezing behavior was measured again (for 5 min) the next day. The apparatus was cleaned with 1% acetic acid following conditioning of each animal.
To determine whether increasing GLP-1R levels in the hippocampus would enhance learning, rAAV vectors expressing control EGFP vector and GLP-1R were generated and injected into the hippocampus of rats. See Example 1(vi) for protocol. Three weeks following vector injection, robust hippocampal expression was obtained (data not shown) with transgene mRNA expression in the principal cell groups of the hippocampus. […] See Example 1 (vii) for protocol. A separate group of rats treated in the same manner was trained twice daily for 5 days in the MWM. […] The decrease in latency was not due to increased swimming speed (both GLP-1R and EGFP controls were approx. 23 cm/sec) nor stress effects (Table 4). Furthmore, the decreased latency was not due to a disruption in visual acuity and general locomotion and swimming ability, because rats from both groups located a visual platform in a similar manner (approx. 32±3 sec latency). […]

Data set [5] concerns rats. The data set is described as follows: Passive avoidance (PA), associative learning in rats. On the procedure:
Passive avoidance was performed in an apparatus (MED Associates Inc., St. Albans, Vt.) consisting of one dark chamber and one light chamber that can be divided by a guillotine door. The training procedure was executed as previously described (N. Venable et al. Psychopharmacology 100, 215 (1990)). Rats were administered a 1.0 mA shock for 3 sec, mice a 0.5 mA shock for 5 sec. Retention tests were performed either at 1, 3 or 7 days post-pairing. Maximum latency was 600 sec for rats, 300 sec for mice.
In the instant invention, rats were pretreated intranasally with one of three dose levels (10 μg/kg, 30 μg/kg, or 60 μg/kg) of Gilatide in 5% β cyclodextrin or an octamer having a sequence homology to CRH and urocortin. […] A control group received vehicle (5% cyclodextrin) alone. With three dose levels for each of the peptides studied, a total of seven (7) groups were employed, each group having 5-8 rats, for a total of 50 rats tested. On the first day of conditioning, the pretreated rats (N=7-13) were administered a single foot shock trial (0.1 mA over 3 seconds) after entering the dark compartment. The animals were replaced in the test apparatus and latencies again were measured on Days 1, 3, 7, and 21 following the aversive stimulus.
Rats were pretreated with either […] 10 μg/kg Gilatide in 5% β cyclodextrin or vehicle by one of three routes of administration: intranasally, subcutaneously, or intraperitoneally. On Day 0, the rats (N=7-13) were conditioned by administration of a single foot shock trial (0.1 mA over 3 seconds) after entry into the dark compartment of a passive avoidance apparatus (the same passive avoidance chamber used in the first series of experiments). At 24 hours (Day 1) following the initial test, and delivery of the single shock, the animals were replaced in the test apparatus and latency again measured. (FIG. 7)
Rates (N=5-10) were pretreated intranasally with one of five dose levels (0.1 μg/kg, 1 μg/kg, 3 μg/kg, 30 μg/kg or 60 μg/kg) of Gilatide in 5% β cyclodextrin, vehicle (5% cyclodextrin), or Nicotine (0.3 mg/kg, subcutaneously). On Day 0, the rats were conditioned by administration of a single foot shock trial (0.1 mA over 3 seconds) after entry into the dark compartment of a passive avoidance apparatus (the same passive avoidance chamber used in the other experiments). The preconditioned rats were retested on Days 1, 3, 7, and 21.
The effect of Gilatide was tested on memory consolidation by administering the peptide after shock testing. Rats (N=7-13) were preconditioned by administering a single foot shock trial (0.1 mA over 3 seconds) after entering the dark compartment of a passive avoidance apparatus. Twenty (20) minutes after the conditioning session, one group of rats was administered 10 μg/kg of Gilatide intranasally (TRN-TXT). Another group of rats (TXT-DLY-TRN) was administered this same dose of Gilatide 24 hours after the conditioning session. Both treatment groups were returned to the test apparatus 24 hours following treatment and latencies were again measured. […] (FIG. 13)
The effects of Gilatide when used with or without an Exendin-4 antagonist were observed and measured. Rats (N=6-13) were pretreated with either 10 μg/kg or 20 μg/kg of Gilatide with or without an Exendin-4 antagonist (10 μg/kg). A control group was administered vehicle alone. The pretreated rats were conditioned on Day 0 by administration of a single foot shock trial (0.1 mA over 3 seconds) after entry into the dark compartment of a passive avoidance apparatus (the same passive avoidance chamber used in the other experiments). The preconditioned rats were retested on 24 hours later. […] (FIG. 14)
Twenty-four hours later the rats were returned to the apparatus and retested. […] (FIG. 15)

Marks after values point to notes of the source that are not given here.

Consider Insulin, for which the “drop in blood glucose” value in data set [1] (20 minutes) came to 44%. The “Blood glucose mean ± s.e.m.” value in data set [1] is 50.7 ± 8.2 (P < 0.01) mg/dl.
Consider `C1CCc2nnnn2CC1` [PTZ], for which, in the data set with rats [2] (20 mg/kg IP), the “ENTRIES Closed Arm” value turned out to be 1.6 ± 0.4, the “ENTRIES Open Arm” value was 0***, the “TIME Closed Arm” value was 249.6 ± 13.32 and the “TIME Open Arm” value was 0***.
As for `COC(=O)C1=CCCN(C)C1` [arecoline], the “latency to locate the submerged platform in the retention trial” value in the data set on rats [3] (48 hours after training, [Ser(2)]exendin(1-9) 30 μg intranasal, arecoline 0.3 mg s.c.) is given as “significantly reduced the latency”. The “acquisition of spatial learning” value in the data set with rats [3] (intranasal (arecoline s.c.), four trials) is listed as “did not affect acquisition of spatial learning”. Further, the “freezing behavior in contextual fear conditioning” value with rats [4] is listed as “enhanced freezing behavior”.
On to C peptide, for which the “Blood glucose mean ± s.e.m.” value in data set [1] was found to be 90.3 ± 8.9 mg/dL.
Take `NC(=O)CC[C@@H]1NC(=O)[C@H](Cc2ccccc2)NC(=O)[C@H](Cc2ccc(O)cc2)NC(=O)[C@@H](N)CSSC[C@@H](C(=O)N2CCC[C@H]2C(=O)N[C@@H](CCCN=C(N)N)C(=O)NCC(N)=O)NC(=O)[C@H](CC(N)=O)NC1=O` [vasopressin]: the “latency in PA” value in the data set on rats [5] (i.c.v., GLP-1 10 ng and 100 ng, [Ser(2)]exendin(1-9) 10 ng) was “enhanced latency”. For the same compound, in the data set on rats [5] (intranasal, [Ser(2)]exendin(1-9) 3, 10, 30 μg, vasopressin 0.3 μg (FIG. 9A)), the “latency in the PA test” value is “increased latency”.
On to “Insulin A chain: inactive insulin fragment”, for which, in data set [1], the “Blood glucose mean ± s.e.m.” value amounted to 90.3 ± 4.7 mg/dL.
In the case of `COc1cccc(-c2cc(=O)c3ccccc3o2)c1N` [PD98059], the “effect on enhancement of associative learning by intranasal [Ser(2)]exendin(1-9)” value in the data set on rats [5] (PD98059 5 μg i.c.v. before (PRE) training) is “not when given before (PRE) training”; in the data set with rats [5] (PD98059 5 μg i.c.v. immediately after training (POST)), “completely blocked”.
Turning to “Insulin B chain: inactive insulin fragment”, the “Blood glucose mean ± s.e.m.” value in data set [1] is 100 ± 4.9 mg/dL.
On to `CN1CCCC1c1cccnc1` (stereo not drawn) [nicotine], for which, in the data set with rats [5] (0.3 mg/kg subcutaneously, 24 hours), the “latency in PA” value is listed as “modestly increased latencies”.
For `Cc1ncc2n1-c1ccc(Cl)cc1C(c1ccccc1F)=NC2` [Midazolam], in the data set on rats [2] (1.5 mg/kg IP), the “ENTRIES Closed Arm” value is 5.1 ± 0.5, the “ENTRIES Open Arm” value is given as 6.6 ± 0.7, the “TIME Closed Arm” value is reported as 89.2 ± 15 and the “TIME Open Arm” value was 141.3 ± 18.
